Measurements from article PMC2217675, “Quantitative High-Throughput Screen Identifies Inhibitors of the Schistosoma mansoni Redox Cascade” (PLoS Neglected Tropical Diseases, 2008).
Like-named read-outs stand apart in the source and are kept apart here.

Assays:
Experiment in all cases: biochemical
[1] = biological target: T1, S. mansoni TGR/Prx2 (Schistosoma mansoni, UniProt Q962Y6); format: biochemical
T1 sequence (Q962Y6 1-598): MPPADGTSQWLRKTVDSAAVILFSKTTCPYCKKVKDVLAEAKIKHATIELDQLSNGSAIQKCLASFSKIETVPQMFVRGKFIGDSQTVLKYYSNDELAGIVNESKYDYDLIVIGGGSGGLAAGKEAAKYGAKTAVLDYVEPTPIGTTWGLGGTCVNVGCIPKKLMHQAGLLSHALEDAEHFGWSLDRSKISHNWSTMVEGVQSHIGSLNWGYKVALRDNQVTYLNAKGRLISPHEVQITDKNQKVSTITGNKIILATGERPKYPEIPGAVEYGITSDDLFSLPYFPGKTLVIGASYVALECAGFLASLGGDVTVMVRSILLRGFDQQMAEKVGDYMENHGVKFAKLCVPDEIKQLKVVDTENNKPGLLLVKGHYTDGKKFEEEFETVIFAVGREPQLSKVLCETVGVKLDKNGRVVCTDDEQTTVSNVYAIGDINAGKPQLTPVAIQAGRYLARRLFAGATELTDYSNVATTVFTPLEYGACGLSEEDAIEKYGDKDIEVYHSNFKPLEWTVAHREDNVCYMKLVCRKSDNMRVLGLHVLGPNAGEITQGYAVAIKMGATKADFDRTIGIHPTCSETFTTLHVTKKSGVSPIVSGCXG

[2] = biological target: T2, TGR (Schistosoma mansoni, UniProt Q962Y6)
T2 sequence (Q962Y6 1-598): T1 sequence (Q962Y6 1-598)

[3] = biological target: T1, S. mansoni TGR/Prx2
[4] = initial high throughput screen of the collection, 25 nM TGR, 50 nM Prx2, read-out: qHTS IC50
[5] = DTNB as substrate, 15 nM TGR, read-out: TGR Assay IC50

SMILES	IC50 [2]	IC50 [3]	other results
CC1COc2c(N3CCN(C)CC3)c(F)cc3c(=O)c(C(=O)O)cn1c23 (centres unmarked) [Ofloxacin, reference compound]			activity in qHTS ([1]; primary screen): apparent activator
CC1=CC(=O)NP(=O)(Oc2ccccc2)N1 (centres unmarked) [compound 15]	4000 nM	2000 nM	
O=C([O-])[C@H]([O-])[C@@H]([O-])C(=O)[O-].O=C([O-])[C@H]([O-])[C@@H]([O-])C(=O)[O-].[K+].[K+].[Sb+3].[Sb+3] [PAT, potassium antimonyl tartrate, reference compound]			IC50 ([1]; read-out: average IC50 of intraplate control titration): 14 ± 8 nM
COc1ccc(C(=O)c2no[n+]([O-])c2C(=O)c2ccc(OC)cc2)cc1 [compound 8]		4700 nM	IC50 [1, 4]: 10000 nM; IC50 [2, 5]: 60 nM
N#Cc1c(-c2ccccc2)no[n+]1[O-] [compound 9]	1800 nM		IC50 [1]: 8700 nM
CCCCOc1cc(Br)c2noc3c2c1C(=O)c1ccccc1-3 [compound 12]			IC50 [2, 5]: 150 nM; IC50 ([3]; read-out: Confirmation IC50): 840 nM
O=C(c1ccco1)c1no[n+]([O-])c1C(=O)c1ccco1 [compound 5]	25 nM	1500 nM	
O=C(c1cccs1)c1no[n+]([O-])c1C(=O)c1cccs1 [compound 7]		1500 nM	IC50 [1, 4]: 9200 nM; IC50 [2, 5]: 20 nM
CC1=CC(=O)NP(=O)(Oc2ccc(Cl)cc2)N1 (centres unmarked) [compound 13]	550 nM	420 nM	
O=P(Nc1ccccc1F)(c1ccccc1)c1nc2ccccc2s1 (centres unmarked) [compound 2]	12000 nM	23000 nM	
CCOc1ccc(OP2(=O)NC(=O)C=C(C)N2)cc1 (centres unmarked) [compound 16]	600 nM	180 nM	
Cc1nn(C)cc1C(=O)c1no[n+]([O-])c1C(=O)c1cn(C)nc1C [compound 6]			IC50 [1, 4]: 24000 nM; IC50 [2, 5]: 2000 nM
COC(=O)C(C(=O)OC)c1cc(Br)c2noc3c2c1C(=O)c1ccccc1-3 [compound 11]	80 nM	120 nM	
CCOC(=O)C(C(=O)OCC)c1cc(Br)c2noc3c2c1C(=O)c1ccccc1-3 [compound 10]	9000 nM	> 57000 nM	IC50 [1]: 530 nM
